In patent US20250381110A1, “SKIN CARE COMPOSITION AND METHOD OF USING THE SAME” (THE PROCTER & GAMBLE COMPANY, priority 2024, published 2025):
Where a name gives a salt, the structure may show the parent alone. Where a SMILES comes first, the peptide text is derived from it. Bridges are numbered along the chain shown (N, C = ends). [ ]: non-standard residue; d: D form. The star is where a group is joined. Ileψ(thiazoline)Cys = CC[C@H](C)[C@H](N)C1=N[C@H](C(=O)*)CS1; dOrn = NCCC[C@@H](N)C(=O)O

Tested on: p62-dependent mitophagy
Assay: Luciferase-p62 assay (Fluc-p62 clearance) in mouse embryonic fibroblasts
Format: cell-based
Conditions: for Mean Luminescence: Luciferase-p62 assay, mouse embryonic fibroblasts (MEFs), compounds at 10 μM; for % Activity over baseline: percentage of Luciferase-p62 clearance relative to baseline (mean luminescence in the absence of doxycycline induction); for % Activity over baseline / % Activity relative to Rapamycin: MEFs, 10 μM; for % Activity relative to Rapamycin: percentage of activity relative to rapamycin tested in the same experiment at the same concentration
In short: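 MEFs with doxycycline-inducible Fluc-p62; after induction, doxycycline removed and cells treated 48 h with compounds at 10 μM. Fluc-p62 clearance, taken as mitophagy, read by ONE-Glo+Tox luciferase with viability. Vehicle (DMSO) as negative control; activity also expressed relative to rapamycin.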

Compound | Mean Luminescence | % Activity over baseline | % Activity relative to Rapamycin
COc1ccc(CC(=O)O)cc1 [4-Methoxyphenylacetic acid] | 929.33 | 42.57% | 76.69%
CC(=O)O[C@H](CC(=O)O)C[N+](C)(C)C.[Cl-] [L-Acetylcarnitine (hydrochloride)] | 581.20 | 64.08% | 115.46%
CC1=C2C[C@H]3[C@@H](CC=C4C[C@@H](O)CC[C@@]43C)[C@@H]2CC[C@]12O[C@@H]1C[C@H](C)CN[C@H]1[C@H]2C [Cyclopamine] | 471.92 | – | –
CNC(=O)c1cc(Oc2ccc(NC(=O)Nc3ccc(Cl)c(C(F)(F)F)c3)cc2)ccn1 [Sorafenib] | 932.25 | 42.39% | 76.37%
COC(=O)/C=C/C(=O)OC [Dimethyl Fumarate] | 786.79 | 51.38% | 92.57%
CCc1ccc(CCOc2ccc(CC3SC(=O)NC3=O)cc2)nc1 (stereo not drawn) [Pioglitazone] | 847.16 | 47.65% | 85.84%
Cc1nc(Nc2ncc(C(=O)Nc3c(C)cccc3Cl)s2)cc(N2CCN(CCO)CC2)n1 [Dasatinib Monohydrate] | 410.49 | 74.63% | 134.47%
C=C(CC(=O)O)C(=O)O [Itaconic acid] | 640.97 | 60.39% | 108.80%
Oc1ccccc1O [Pyrocatechol] | 906.35 | 43.99% | 79.25%
NC[C@H]1O[C@H](O[C@H]2[C@H](O)[C@@H](O[C@H]3O[C@H](CO)[C@@H](O)[C@H](N)[C@H]3O)[C@H](N)C[C@@H]2N)[C@H](N)C[C@@H]1O [Tobramycin] | 971.48 | 39.96% | 72.00%
CC(=O)O[C@]1(C(C)=O)CC[C@H]2[C@@H]3C[C@H](C)C4=CC(=O)CC[C@]4(C)[C@H]3CC[C@@]21C [Medroxyprogesterone acetate] | 800.04 | 50.56% | 91.09%
CO/N=C1\C[C@]2(C[C@@H]3C[C@@H](C/C=C(\C)C[C@@H](C)/C=C/C=C4\CO[C@@H]5[C@H](O)C(C)=C[C@@H](C(=O)O3)[C@]45O)O2)O[C@H](/C(C)=C/C(C)C)[C@H]1C [Moxidectin] | 476.19 | 70.57% | 127.15%
Clc1ccc(COC(Cn2ccnc2)c2ccc(Cl)cc2Cl)c(Cl)c1 (stereo not drawn) [Miconazole] | 297.40 | 81.62% | 147.06%
N[C@@H]1CCCCN(c2c(F)cc3c(=O)c(C(=O)O)cn(C4CC4)c3c2Cl)C1 [Besifloxacin HCl] | 777.82 | 51.93% | 93.56%
COc1nc2ccc(Br)cc2cc1[C@@H](c1ccccc1)[C@@](O)(CCN(C)C)c1cccc2ccccc12 [Bedaquiline] | 802.99 | – | –
Nc1nc(=O)c2c([nH]1)NCC(CNc1ccc(C(=O)N[C@@H](CCC(=O)O)C(=O)O)cc1)N2C=O (mixture of isomers) [Folinic acid] | 762.92 | 52.85% | 95.22%
C/C=C1/[C@H](O[C@@H]2O[C@H](CO)[C@@H](O)[C@H](O)[C@H]2O)OC=C(C(=O)OC)[C@H]1CC(=O)OCCc1ccc(O)c(O)c1 [Oleuropein] | 843.32 | 47.88% | 86.27%
O=C(/C=C/c1ccc(O)cc1)CC(=O)/C=C/c1ccc(O)cc1 [Bisdemethoxycurcumin] | 355.33 | 78.04% | 140.61%

Compound | Mean Luminescence | % Activity over baseline | % Activity relative to Rapamycin
C=CCc1ccc(O)c(-c2cc(CC=C)ccc2O)c1 [Magnolol] | 950.75 | 41.24% | 74.31%
C=C1CCC2C(C=C(C)C(=O)C3(OC(C)=O)CC(C)C(OC(=O)c4ccccc4)C3C1OC(C)=O)C2(C)C (stereo not drawn) [5,15-Diacetyl-3-benzoyllathyrol] | 927.14 | 42.70% | 76.94%
CC(C)(CO)C(O)C(=O)NCCC(=O)[O-].CC(C)(CO)C(O)C(=O)NCCC(=O)[O-].[Ca+2] [Calcium D-Panthotenate] | 981.67 | 39.33% | 70.87%
O=C(CCc1ccc(O)cc1)c1c(O)cc(O)cc1O [Phloretin] | 912.42 | 43.61% | 78.58%
Oc1ccc(OC2CCCCO2)cc1 (stereo not drawn) [Deoxyarbutin] | 653.14 | 59.64% | 107.45%
Tubeimoside I | 257.38 | 84.09% | 151.52%
N[C@@H](Cc1cc(I)c(Oc2cc(I)c(O)c(I)c2)c(I)c1)C(=O)O [Levothyroxine sodium] | 974.14 | 39.80% | 71.71%
C[C@@H]1CC[C@H]2[C@@H](C)C(=O)O[C@@H]3O[C@@]4(C)CC[C@@H]1[C@]32OO4 [Artemisinine] | – | 39.29% | –
CCN(CC)CC#CCOC(=O)C(O)(c1ccccc1)C1CCCCC1 (stereo not drawn) [Oxybutynin chloride] | 882.87 | 45.44% | 81.87%
C[N+](C)(C)CC(O)CC(=O)O.[Cl-] (racemic) [DL-Carnitine HCl] | 902.01 | 44.26% | 79.74%
N=c1ccn2c(n1)O[C@H]1[C@H](O)[C@@H](CO)O[C@H]12 [Cyclocytidine HCl] | 914.30 | 43.50% | 78.37%
CC(C)(CO)C(O)C(=O)NCCCO (racemic) [DL-Panthenol] | 991.50 | 38.72% | 69.77%
C=C1CC[C@H](O)C/C1=C/C=C1\CCC[C@]2(C)[C@@H]([C@H](C)CCCC(C)C)CC[C@@H]12 [Vitamin D3] | 488.16 | 69.83% | 125.82%
CC(=O)O[C@H]1C(=O)[C@@]2(C)[C@H]([C@H](OC(=O)c3ccccc3)[C@]3(O)C[C@H](OC(=O)[C@H](O)[C@@H](NC(=O)c4ccccc4)c4ccccc4)C(C)=C1C3(C)C)[C@]1(OC(C)=O)CO[C@@H]1C[C@@H]2O [Compound 7-Epitaxol] | 968.61 | 40.14% | 72.32%
CO[C@]12C[C@@H](COC(=O)c3cncc(Br)c3)CN(C)[C@@H]1Cc1cn(C)c3cccc2c13 [Nicergoline] | 764.49 | 52.75% | 95.05%
CC[C@H](C)[C@H](N)C1=N[C@H](C(=O)N[C@@H](CC(C)C)C(=O)N[C@H](CCC(=O)O)C(=O)N[C@H](C(=O)N[C@H]2CCCCNC(=O)[C@H](CC(N)=O)NC(=O)[C@@H](CC(=O)O)NC(=O)[C@H](Cc3cnc[nH]3)NC(=O)[C@@H](Cc3ccccc3)NC(=O)[C@H]([C@@H](C)CC)NC(=O)[C@@H](CCCN)NC2=O)[C@@H](C)CC)CS1 [Bacitracin] ({Ileψ(thiazoline)Cys}-L[dE]IK[dOrn]I[dF]H[dD]N; lactam 4-C) | 860.05 | 46.85% | 84.41%
C=C[C@@]1(C)CC(=O)[C@]2(O)[C@@]3(C)[C@@H](O)CCC(C)(C)[C@@H]3[C@H](O)[C@H](OC(C)=O)[C@@]2(C)O1 [Forskolin] | 911.32 | 43.68% | 78.70%
CCc1c(Cl)c(O)c(Cl)c(O)c1C(=O)O[C@H]1[C@H](O)[C@H](OC)[C@H](OC/C2=C\C=C\C[C@H](O)/C(C)=C/[C@H](CC)[C@@H](O[C@@H]3OC(C)(C)[C@@H](OC(=O)C(C)C)[C@H](O)[C@@H]3O)/C(C)=C/C(C)=C/C[C@@H]([C@@H](C)O)OC2=O)O[C@@H]1C [Fidaxomicin] | 262.87 | 83.75% | 150.90%
